According to article PMC2579264 (European journal of pharmacology, 2008):
Changes are numbered by the printed parent chain.

What was measured:
[1] = test system: Chinese hamster ovary (CHO) cells; experiment: Loss of cell protein or detachment of cells after digitonin pretreatment; assay type: cell-based; details: 10 µM digitonin pretreatment at 25 °C
[2] = target: T1, human neuropeptide Y Y2 receptor, wildtype (P^34D^35) (Homo sapiens, UniProt P49146); experiment: Receptor-linked internalization of agonist, wildtype Y2 receptor; assay type: cell-based; details: heparin 5 µM, n = 12
T1 sequence (P49146 1-381): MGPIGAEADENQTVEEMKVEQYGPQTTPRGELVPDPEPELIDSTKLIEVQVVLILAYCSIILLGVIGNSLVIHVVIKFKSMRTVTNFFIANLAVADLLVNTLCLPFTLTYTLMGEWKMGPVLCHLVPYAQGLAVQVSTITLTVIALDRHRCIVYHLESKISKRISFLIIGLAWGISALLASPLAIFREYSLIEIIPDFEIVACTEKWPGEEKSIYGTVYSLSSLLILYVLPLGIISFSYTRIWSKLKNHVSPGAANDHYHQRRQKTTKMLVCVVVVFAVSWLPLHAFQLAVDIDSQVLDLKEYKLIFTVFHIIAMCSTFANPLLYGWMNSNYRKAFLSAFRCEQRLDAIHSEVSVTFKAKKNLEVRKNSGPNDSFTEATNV

[3] = target: T2, human neuropeptide Y Y2 receptor, A^34A^35 (Homo sapiens, UniProt P49146, D35A/P34A); experiment: Receptor-linked internalization of agonist, A^34A^35 mutant; assay type: cell-based; details: heparin 5 µM, n = 12
T2 sequence (P49146 1-381 P34A/D35A): T1 sequence (P49146 1-381) with P34A, D35A

[4] = test system: neuropeptide Y Y2 receptor; experiment: Effect of heparin on binding of peptide YY; design: species or system human; details: heparin up to 30 µM; cell surface or particulate Y2 receptors
[5] = test system: human neuropeptide Y Y2 receptor, wildtype; assay type: cell-based
[6] = target: T2, human neuropeptide Y Y2 receptor, A^34A^35; experiment: Compartmentalization: unmasking / depletion of surface sites, A^34A^35 mutant; assay type: cell-based
[7] = test system: CHO cells expressing the A^34A^35 receptor; experiment: Bio-Gel P-4 gel filtration of internalized agonist, A^34A^35 receptor; details: 100 pM [^125I] peptide YY(3–36); detected by [^125I] label; 2 to 15 min

Compound: C[C@@H]1CC[C@@]2(OC1)O[C@H]1[C@@H](O)[C@H]3[C@@H]4CC[C@H]5C[C@@H](O[C@@H]6O[C@H](CO)[C@H](O[C@@H]7O[C@H](CO)[C@@H](O)[C@H](O[C@@H]8OC[C@@H](O)[C@H](O)[C@H]8O)[C@H]7O[C@@H]7O[C@H](CO)[C@H](O)[C@H](O[C@@H]8O[C@H](CO)[C@@H](O)[C@H](O)[C@H]8O)[C@H]7O)[C@H](O)[C@H]6O)[C@H](O)C[C@]5(C)[C@H]4CC[C@]3(C)[C@H]1[C@@H]2C [digitonin]
- loss of cell protein or detachment of cells [1]: did not result in a loss of cell protein or a detachment of cells

Compound: heparin
- increase of internalization of 100 pM [^125I] peptide YY(3–36) ([2]; 4 min): 19.4 ± 2%
- increase of internalization of 100 pM [^125I] peptide YY(3–36) ([2]; 10 min): 4.8 ± 1.8%
- increase of internalization of 100 pM [^125I] peptide YY(3–36) ([3]; 4 min): 43.5 ± 3.5%
- increase of internalization of 100 pM [^125I] peptide YY(3–36) ([3]; 10 min): 25.1 ± 5%
- effect on affinity and capacity of binding of peptide YY(3–36) [4]: did not affect the affinity and capacity of the binding

Compound: pertussis toxin: pertussis toxin, used to deplete the compartmentalized surface Y2 sites
- basal cell surface binding of [^125I] peptide YY(3–36) after pertussis toxin [5]: did not substantially reduce
- surface sites unmasked by the arsenical after pertussis toxin [5]: strongly reduced
- basal cell surface binding of [^125I] peptide YY(3–36) after pertussis toxin [6]: did not substantially reduce
- surface sites unmasked by the arsenical after pertussis toxin [6]: almost eliminated

Compound: N[C@@H](Cc1ccc(O)cc1)C(=O)O [C-terminal tyrosine, tyrosine]
- accumulation of product of peptide YY processing in cells [7]: no accumulation
